Calls of active or inactive are those of the source. The rule behind the calls is not given here.
Tested on: CCRIS mutagenicity, Ames/micronucleus/aberration tests
Assay: CCRIS mutagenicity studies
[1] = Test System: AMES SALMONELLA TYPHIMURIUM, Strain/Indicator: TA98, Metabolic Activation: NONE, Method: STANDARD PLATE
[2] = Test System: AMES SALMONELLA TYPHIMURIUM, Strain/Indicator: TA98, Metabolic Activation: RAT, LIVER, S-9, AROCLOR 1254, Method: STANDARD PLATE
[3] = Test System: AMES SALMONELLA TYPHIMURIUM, Strain/Indicator: TA98, Metabolic Activation: NONE, Method: PREINCUBATION
[4] = Test System: AMES SALMONELLA TYPHIMURIUM, Strain/Indicator: TA100, Metabolic Activation: NONE, Method: PREINCUBATION
[5] = Test System: AMES SALMONELLA TYPHIMURIUM, Strain/Indicator: TA1535, Metabolic Activation: NONE, Method: PREINCUBATION
[6] = Test System: AMES SALMONELLA TYPHIMURIUM, Strain/Indicator: TA1537, Metabolic Activation: NONE, Method: PREINCUBATION
[7] = Test System: AMES SALMONELLA TYPHIMURIUM, Strain/Indicator: TA100, Metabolic Activation: NONE, Method: STANDARD PLATE
[8] = Test System: AMES SALMONELLA TYPHIMURIUM, Strain/Indicator: TA102, Metabolic Activation: NONE, Method: STANDARD PLATE

Measured: mutagenic call

C=CCN(CC=C)c1cc(NC(C)=O)c(N=Nc2c(Br)cc([N+](=O)[O-])cc2[N+](=O)[O-])cc1OC
active: [2] active; positive | Test System: AMES SALMONELLA TYPHIMURIUM, Strain/Indicator: YG1041, Metabolic Activation: NONE, Method: STANDARD PLATE active; positive | Test System: AMES SALMONELLA TYPHIMURIUM, Strain/Indicator: YG1041, Metabolic Activation: RAT, LIVER, S-9, AROCLOR 1254, Method: STANDARD PLATE active; positive
inactive: [1] inactive; negative

OCc1ccc2c(CO)c3ccc4ccccc4c3nc2c1
inactive: Test System: AMES SALMONELLA TYPHIMURIUM, Strain/Indicator: TA100, Metabolic Activation: RAT, LIVER, S-9, AROCLOR 1254, Method: STANDARD PLATE inactive; negative

O=C(c1ccccc1)N(O)c1ccc2c(c1)Cc1ccccc1-2
active: [2] active; positive

CS(C)(=O)=O
inactive: [3] inactive; negative | Test System: AMES SALMONELLA TYPHIMURIUM, Strain/Indicator: TA98, Metabolic Activation: RAT, LIVER, S-9, AROCLOR 1254, Method: PREINCUBATION inactive; negative | [4] inactive; negative | Test System: AMES SALMONELLA TYPHIMURIUM, Strain/Indicator: TA100, Metabolic Activation: RAT, LIVER, S-9, AROCLOR 1254, Method: PREINCUBATION inactive; negative | Test System: AMES SALMONELLA TYPHIMURIUM, Strain/Indicator: TA102, Metabolic Activation: NONE, Method: PREINCUBATION inactive; negative | Test System: AMES SALMONELLA TYPHIMURIUM, Strain/Indicator: TA102, Metabolic Activation: RAT, LIVER, S-9, AROCLOR 1254, Method: PREINCUBATION inactive; negative

C[C@H]1COc2c(C3(N)CC3)c(F)cc3c(=O)c(C(=O)O)cn1c23
inactive: [3] inactive; negative | Test System: AMES SALMONELLA TYPHIMURIUM, Strain/Indicator: TA98, Metabolic Activation: RAT, LIVER, S-9, PHENOBARBITAL AND 5,6-BENZOFLAVONE, Method: PREINCUBATION inactive; negative | [4] inactive; negative | Test System: AMES SALMONELLA TYPHIMURIUM, Strain/Indicator: TA100, Metabolic Activation: RAT, LIVER, S-9, PHENOBARBITAL AND 5,6-BENZOFLAVONE, Method: PREINCUBATION inactive; negative | [5] inactive; negative | Test System: AMES SALMONELLA TYPHIMURIUM, Strain/Indicator: TA1535, Metabolic Activation: RAT, LIVER, S-9, PHENOBARBITAL AND 5,6-BENZOFLAVONE, Method: PREINCUBATION inactive; negative | [6] inactive; negative | Test System: AMES SALMONELLA TYPHIMURIUM, Strain/Indicator: TA1537, Metabolic Activation: RAT, LIVER, S-9, PHENOBARBITAL AND 5,6-BENZOFLAVONE, Method: PREINCUBATION inactive; negative | Test System: E. COLI, Strain/Indicator: WP2 UVRA, Metabolic Activation: NONE, Method: PREINCUBATION inactive; negative | Test System: E. COLI, Strain/Indicator: WP2 UVRA, Metabolic Activation: RAT, LIVER, S-9, PHENOBARBITAL AND 5,6-BENZOFLAVONE, Method: PREINCUBATION inactive; negative

ClC[C@@H](Br)CBr
active: Test System: AMES SALMONELLA TYPHIMURIUM, Strain/Indicator: TA100, Metabolic Activation: RAT, LIVER, MICROSOMES, Method: PREINCUBATION active; positive

Cc1ccc([N+](=O)[O-])c(C)c1
inactive: [3] inactive; negative | Test System: AMES SALMONELLA TYPHIMURIUM, Strain/Indicator: TA98, Metabolic Activation: RAT, LIVER, S-9, KANECHLOR 500, Method: PREINCUBATION inactive; negative | [4] inactive; negative

COC1=CC(=O)c2c(ncc3c2[nH]c2ccncc23)C1=O
inactive: Test System: AMES SALMONELLA TYPHIMURIUM, Strain/Indicator: TA97A, Metabolic Activation: RAT LIVER S-9, AROCLOR 1254, Method: STANDARD PLATE inactive; negative
active: Test System: AMES SALMONELLA TYPHIMURIUM, Strain/Indicator: TA97A, Metabolic Activation: NONE, Method: STANDARD PLATE active; positive | [1] active; positive | Test System: AMES SALMONELLA TYPHIMURIUM, Strain/Indicator: TA98, Metabolic Activation: RAT LIVER S-9, AROCLOR 1254, Method: STANDARD PLATE active; positive | [7] active; positive | Test System: AMES SALMONELLA TYPHIMURIUM, Strain/Indicator: TA100, Metabolic Activation: RAT LIVER S-9, AROCLOR 1254, Method: STANDARD PLATE active; positive | [8] active; positive | Test System: AMES SALMONELLA TYPHIMURIUM, Strain/Indicator: TA102, Metabolic Activation: RAT LIVER S-9, AROCLOR 1254, Method: STANDARD PLATE active; positive

Cc1ccc(S(=O)(=O)NC(=O)Nc2ncc([N+](=O)[O-])s2)cc1
inactive: [1] inactive; negative | [7] inactive; negative

CC(=O)OC1Cc2c(C)ccc3cc4c(ccc5ccccc54)c1c23 (stereo not drawn)
active: [1] active; positive | [7] active; positive

O=[As]O
inactive: End Point: IN VITRO CHROMOSOMAL ABERRATIONS, Test System: V79-C13 CHINESE HAMSTER CELLS, Metabolic Activation: NONE inactive; negative | [8] inactive; negative
active: End Point: IN VITRO CHROMOSOMAL ABERRATIONS, Test System: CHINESE HAMSTER OVARY (CHO), Metabolic Activation: NONE active; positive (structural changes: breaks, exchanges, endoreduplication) | End Point: IN VITRO CHROMOSOMAL ABERRATIONS, Test System: HUMAN FIBROBLAST (HFW), Metabolic Activation: NONE active; positive (structural changes: breaks, fusion) | End Point: IN VITRO CHROMOSOMAL ABERRATIONS, Test System: HUMAN LYMPHOCYTES, Metabolic Activation: NONE, Method: FISH active; positive (hyperdiploidy) | End Point: IN VITRO MICRONUCLEUS, Test System: CHINESE HAMSTER OVARY CELLS, Metabolic Activation: NONE active; positive | End Point: IN VITRO MICRONUCLEUS, Test System: CHINESE HAMSTER V-79, Metabolic Activation: NONE active; positive | End Point: IN VITRO MICRONUCLEUS, Test System: HUMAN FIBROBLASTS VH25 CELLS, Metabolic Activation: NONE active; positive | End Point: IN VITRO MICRONUCLEUS, Test System: V79-C13 CHINESE HAMSTER CELLS, Metabolic Activation: NONE active; positive | End Point: In vitro chromosomal aberrations, Test System: Human peripheral lymphocytes, Metabolic Activation: None active; positive | End Point: In vitro micronucleus, Test System: Human peripheral lymphocytes, Metabolic Activation: None active; positive | End Point: In vivo micronucleus, Test System: Bone marrow polychromatic erythrocytes, Species: Mouse, Strain/Sex: C57BL/6J/Han/Male, Route: Oral active; positive | Test System: MOUSE LYMPHOMA, Strain/Indicator: L5178Y (TK+/TK-), Metabolic Activation: NONE, Method: SUSPENSION/PLATE active; positive | Test System: Mouse lymphoma, Strain/Indicator: L5178Y (TK+/TK-), Metabolic Activation: None, Method: Microwell active; positive (statistically significant at 2 highest doses)

N[C@@H](CCCCN/C=C/C=O)C(=O)O
active: Test System: AMES SALMONELLA TYPHIMURIUM, Strain/Indicator: HISD3052, Metabolic Activation: NONE, Method: STANDARD PLATE active; positive

O=C(O)Cc1ccccc1[N+](=O)[O-]
active: [4] active; positive | [5] active; positive | Test System: AMES SALMONELLA TYPHIMURIUM, Strain/Indicator: TA1538, Metabolic Activation: NONE, Method: PREINCUBATION active; positive
inactive: [3] inactive; negative | [6] inactive; negative
